“And” between values parts separate entries of the source, which are not always exact repeats. Identical values can stand only once.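 In this assay, cells in 96-well plates receive the compound at five concentrations for 48 hours. Endpoints are linearly interpolated between the surrounding concentrations. GI50 is the concentration that inhibits growth by half. TGI denotes the concentration required for complete inhibition of growth.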
What was measured:
Assay in all cases: NCI anticancer screen, dose series, 48 h
SF-268 CNS = system: SF-268 CNS
MDA-MB-435 = system: MDA-MB-435
KM12 colon = system: KM12 colon
RXF 393 renal = system: RXF 393 renal
HCT-15 colon = system: HCT-15 colon
M14 melanoma = system: M14 melanoma
SK-OV-3 ovarian = system: SK-OV-3 ovarian
NCI-H226 lung = system: NCI-H226 lung
K-562 leukemia = system: K-562 leukemia
EKVX NSCLC = system: EKVX NSCLC

Row | Structure (SMILES) | GI50 (SF-268 CNS) [µM] | TGI (SF-268 CNS) [µM] | GI50 (MDA-MB-435) [µM] | TGI (MDA-MB-435) | GI50 (KM12 colon) [µM] | TGI (KM12 colon) [µM] | GI50 (RXF 393 renal) [µM] | TGI (RXF 393 renal) [µM] | GI50 (HCT-15 colon) [µM] | TGI (HCT-15 colon) [µM] | GI50 (M14 melanoma) [µM] | TGI (M14 melanoma) [µM] | GI50 (SK-OV-3 ovarian) [µM] | TGI (SK-OV-3 ovarian) [µM] | GI50 (NCI-H226 lung) [µM] | TGI (NCI-H226 lung) [µM] | GI50 (K-562 leukemia) [µM] | TGI (K-562 leukemia) [µM] | GI50 (EKVX NSCLC) [µM] | TGI (EKVX NSCLC) [µM]
1 | O=C(c1ccco1)c1nc2cc(Cl)ccc2[n+]([O-])c1C(F)(F)F | 71.1 | > 100 | > 100 | > 100 µM | 29.3 | > 100 | 19.5 | 59.2 | 32.7 | > 100 | 59.1 | > 100 | > 100 | > 100 | 33.2 | > 100 | 22.2 | 54.3 | 37.6 | > 100
2 | Cc1cc2nc3c4cc(N)ccc4n(CCN(C)C)c3nc2cc1C | 1.43 | 6.89 | 0.979 | 3.25 µM | 0.882 | 7.11 | 0.912 | 2.72 | 0.499 | 10.2 | 1.12 | 2.88 | 1.92 | 16.4 | 0.896 | 4.1 | 0.421 | 8.98 | 1.59 | 12.5
3 | C=C1C(=O)O[C@H]2[C@H]1CC/C(Cn1cc(-c3cc(C(F)(F)F)cc(C(F)(F)F)c3)nn1)=C\CC[C@@]1(C)O[C@@H]21 | 1.08 | 2.49 | 0.743 | 2.08 µM | 1.04 | 2.53 | 0.0274 | 0.102 | 0.191 | 0.454 | 0.357 | 1.55 | 1.86 | 3.43 | 1.65 | 3.56 | 0.238 | 0.601 | 1.5 | 2.95
4 | O=C(Nc1cc(Cl)cc(Cl)c1)c1ccc(NC2=C(Cl)C(=O)N(Cc3ccc(Cl)cc3Cl)C2=O)cc1 | 8.87 | 39.4 | 25 | 57.9 µM | 13.6 | 47.7 | 29.6 | > 100 | 7.06 | 95.3 | 10.1 | 61.7 | 55.3 | > 100 | 14.4 | 35 | 1.33 | 10.7 | 21.2 | 71.4
5 | Cc1cc(S(N)(=O)=O)c(S/C(CC(C)C)=N\Nc2ccc([N+](=O)[O-])cc2)cc1Cl | 7.21 | 23.1 | 2.92 | 9.42 µM | 3.32 | 13.2 | 4.13 | 19 | 5.22 | 31.2 | 4.99 | 16.5 | 13.7 | 28.2 | 2.82 | 7.77 | 5.82 | 97 | 16.6 | 31.3
6 | O=C(/C=C/c1cccnc1)NCCCCC1CCCN(C(=O)c2ccccc2)C1 (stereo unspecified) | > 28.4 | > 100 | < 0.01 | > 100 µM | < 0.0357 | > 100 | > 100 | > 100 | < 0.01 | > 100 | < 0.01 | > 100 | > 91.7 | > 100 | > 79.5 | > 100 | < 0.01 | > 100 | > 63.1 | > 100
7 | CCOC(=O)N1CCc2cc(OC)c(OC)c3c2c1cc1cc(OC)c(OC)cc13 | – | > 100 | – | 2.54 µM | – | 67.7 | – | 12.1 | – | 37.9 | – | 63.6 | – | > 51.1 | – | > 100 | – | > 75.9 | – | > 100
8 | COc1cc2cc(Oc3ccc(NC(=O)Nc4cccc(C(F)(F)F)c4)cc3)c(C)nc2cc1OC | 2.57 | 15.5 | 1.63 | 10.1 µM | 1.42 | 5.92 | 1.63 | 4.97 | 1.85 | 22.2 | 1.67 | 7.67 | 2.06 | 10.6 | 1.8 | 5.6 | 1.73 | 14 | 1.48 | 6.46
9 | O=C1c2cc3c(cc2-c2c1c1ccc(Cl)cc1c(=O)n2CCCNCCO)OCO3 | 0.0668 | 2.13 | 1.03 | 2.49 µM | 1.17 | 2.61 | 0.926 | 2.59 | 0.677 | 2.25 | 0.0574 | 1.67 | 0.212 | 1.74 | 0.052 | 1.55 | 0.108 | 0.355 | 1.63 | 3.42
10 | COc1cc2c3c(n(CCCN)c(=O)c2cc1OC)-c1cc2c(cc1/C3=C\CCN)OCO2 | 0.993 | 6.89 | – | > 36 µM | 2.6 | > 21.8 | 4.41 | 14.8 | 27 | > 100 | 12.3 | 35.7 | 6 | 44.2 | 1.45 | 5.9 | 2.17 | > 40.4 | 5.07 | 15.9
11 | Ic1ccccc1-c1ccccc1 | > 100 | > 100 | > 100 | > 100 µM | > 100 | > 100 | 89.1 | > 100 | > 100 | > 100 | > 100 | > 100 | > 100 | > 100 | > 100 | > 100 | > 100 | > 100 | > 100 | > 100
12 | O=c1ccn(C2OC(CO/N=C/c3ccc(O)c(O)c3O)C(O)C2O)c(=O)[nH]1 (stereo unspecified) | 26.5 | 85.6 | 15.8 | 31.3 µM | 35.4 | > 100 | 23 | 73.9 | 20.5 | 50.4 | 39 | > 100 | 27.2 | 89 | > 100 | > 100 | 21.7 | 78.5 | 33.9 | > 100
13 | Nc1c(Br)cc(Br)c2c1[nH]c(=O)c1ccccc12 | 9.72 | > 69.3 | 19.5 | > 100 µM | > 100 | > 100 | 4.7 | 22.1 | 60.1 | > 100 | 9.89 | > 100 | 2.85 | 7.81 | 2.75 | 12.7 | 37.3 | > 100 | 1.36 | 11.1
14 | O=c1nc2n(-c3ccc(Cl)cc3)c3ccc([N+](=O)[O-])cc3cc-2c(=O)[nH]1 | 16.5 | 64.5 | 15.8 | 37.7 µM | 5.06 | 20 | 18.8 | > 100 | 8.84 | > 100 | 20.2 | 37.7 | 41.7 | > 100 | 21.1 | 60.5 | 32.6 | > 100 | 37.2 | 82.5
15 | Cc1c(-c2c(-c3ccc(F)o3)sc3ncnc(O[C@H](Cc4ccccc4OCc4ccnn4CC(F)(F)F)C(=O)O)c23)ccc(OCCN2CCN(C)CC2)c1Cl | 4.46 | 11.4 | 1.89 | 6.37 µM | 4 | 7.99 | 2.77 | 6.1 | 6.49 | 20.1 | 1.32 | 5.83 | 5.74 | 14.8 | 5.89 | 15.5 | 3.71 | 14.5 | 4.12 | 14.2
16 | Cc1ccc(-n2c3c(c4c(CN(C)C)c(O)ccc42)CCc2ccccc2C3=O)cc1 | 19.8 | 50.5 | 15.2 | 30.4 µM | 19.3 | 40 | 13.6 | 28 | 18.3 | 35.8 | 16.1 | 30.2 | > 100 | > 100 | 18.1 | 37 | 10.2 | 25.9 | 38 | > 100
17 | CCOC(=O)c1[nH]c(Br)c(-c2ccc(Br)cc2)c1Br | 0.836 | 34.8 | 0.0997 | 0.546 µM and 0.289 µM | 0.302 | 16 | – | 8.14 | 0.25 | > 100 | – | 17.9 | 0.967 | 6.28 | – | 6.88 | 0.193 | 1.12 | 0.852 | 17.3
